In paper PMC9136610 (Acta Pharmaceutica Sinica. B, 2022):

Legend:
in vivo = conditions: female, MMTV-PyMT (FVB/NJ background), mouse; for Kp: AUCtissue/AUCplasma
[1] = for AUC in tumor tissues, fold higher than in the normal fatpad: i.v. injection
[2] = ref Drugbank database (go.drugbank.com); cited from earlier work
plasma protein = conditions: cited from earlier work; for Protein binding: ref Drugbank database (go.drugbank.com)
albumin = conditions: cited from earlier work

Row | Structure (SMILES) | AUC (in vivo; po, 5 mg/kg) | bioavailability (in vivo; po, 5 mg/kg) | Kp (in vivo; po, Kpbone, bone) | Kp (in vivo; po, Kpfatpad, fatpad) | Kp (in vivo; po, Kptumor, tumor) | AUCtumor (oral 5 mg/kg, tumor) | LogP [2] | LogS [2] | Protein binding (plasma protein) | pKa [2] | also measured
1 | CC/C(=C(\c1ccc(O)cc1)c1ccc(OCCN(C)C)cc1)c1ccccc1 [Afimoxifene, afimoxifene] | 114 ng·h/mL | 32.4% | 5 | 10.9 | 25.3 | 2886.5 | 5.44 | −5.1 | 99% | – | tissue selectivity compared to tamoxifen and toremifene, in words ([1]; i.v. 2.5 mg/kg): higher lung but lower pancreas selectivity; exposure difference in the kidney, afimoxifene vs droloxifene ([1]; i.v. 2.5 mg/kg, AUC ratio): 4.8 fold; exposure difference in the liver, afimoxifene vs droloxifene ([1]; i.v. 2.5 mg/kg, AUC ratio): 6.8 fold; AUC in tumor tissues, fold higher than in the normal fatpad [1]: 2.2 fold
2 | CC/C(=C(/c1ccc(OCCN(C)C)cc1)c1cccc(O)c1)c1ccccc1 [Droloxifene] | 127 ng·h/mL | 45.3% | 7.7 | 9.5 | 25.6 | 3238.8 | 5.43 | −5.1 | – | 8.49 | tissue selectivity compared to tamoxifen and toremifene, in words ([1]; i.v. 2.5 mg/kg): higher lung but lower pancreas selectivity; AUC in tumor tissues, fold higher than in the normal fatpad [1]: 3.1 fold
3 | Cc1cc(-c2ccc(/N=N/c3ccc4c(S(=O)(=O)O)cc(S(=O)(=O)O)c(N)c4c3O)c(C)c2)ccc1/N=N/c1ccc2c(S(=O)(=O)O)cc(S(=O)(=O)O)c(N)c2c1O [Evan blue] | – | – | – | – | – | – | – | – | – | – | plasma protein binding level (plasma protein): 68%
4 | Oc1ccc2c(c1)CC[C@H](c1ccccc1)[C@@H]2c1ccc(OCCN2CCCC2)cc1 [Lasofoxifene, lasofoxifene] | 75.4 ng·h/mL | – | 3.5 | 5.7 | 13.2 | 996 | 6.36 | −6 | 99% | 8.98 | bioavailability (in vivo): 26.9%
5 | COc1ccc2c(c1)CCC(c1ccccc1)=C2c1ccc(OCCN2CCCC2)cc1 [Nafoxidine, nafoxidine] | 969 ng·h/mL | – | 1.4 | 4.5 | 6.3 | 6118.7 | 6.36 | −5.91 | – | 8.95 | bioavailability (in vivo): 83.4%; oral bioavailability, fold higher than lasofoxifene (vs lasofoxifene): 3 fold; tissue selectivity compared to lasofoxifene, in words ([1]; after i.v and p.o. administration): higher selectivity in stomach, liver, fat, fatpad, spleen, kidney, but lower selectivity in heart, tumor and pancreas; exposure in the fat, fold higher than lasofoxifene ([1]; i.v. 2.5 mg/kg): 8 fold; exposure in the spleen, fold higher than lasofoxifene ([1]; i.v. 2.5 mg/kg): 6 fold
6 | O=C(c1ccc(OCCN2CCCCC2)cc1)c1c(-c2ccc(O)cc2)sc2cc(O)ccc12 [Raloxifene, raloxifene] | 114 ng·h/mL | – | – | – | – | 929.4 | – | – | – | – | –
7 | CC/C(=C(\c1ccccc1)c1ccc(OCCN(C)C)cc1)c1ccccc1 [Tamoxifen] | 102 ng·h/mL | 39.4% | – | – | – | 3621.3 | – | – | 98% | – | exposure difference in the fat, intestine and skin, tamoxifen vs toremifene ([1]; i.v. 2.5 mg/kg, AUC ratio): 2 fold
8 | CN(C)CCOc1ccc(/C(=C(/CCCl)c2ccccc2)c2ccccc2)cc1 [Toremifene, toremifene] | 64.9 ng·h/mL | 18.5% | 5.1 | 20.9 | 21.5 | 1393 | 5.65 | −6 | 92% | 8.76 | tumor drug concentration, fold higher than raloxifene (oral 5 mg/kg, tumor, vs raloxifene): 1.5 fold; drug exposure in the lung, fold increase to tamoxifen (20 mg QD) (toremifene 60 mg QD (3-fold AUC) vs tamoxifen 20 mg QD): 2 fold
9 | COc1cccc2c1C(=O)c1c(O)c3c(c(O)c1C2=O)C[C@@](O)(C(=O)CO)C[C@@H]3O[C@H]1C[C@H](N)[C@H](O)[C@H](C)O1 [doxorubicin] | – | – | – | – | – | – | – | – | – | – | binding affinity to albumin (albumin): 7500 mol/L
